Activity calls are given as the source filed them. Cut-off read from the data, not from the text of the source, for most assays here: actives have a measured EC50 and inactives only a lower limit.
Test system: not listed separately
Experiment: Luminescence Cell-Based Dose Response HTS to Identify Activators of Luciferase Translation or Activity in H4 […] Cells. [Related pubchem assays: 1829 (Project Summary), 1814 (Primary HTS)]
Format: functional
Conditions: not given

Row | Structure (SMILES) | EC50
1 | O=C(Nc1ccc(N2CCCCC2)cc1)C(Cl)c1ccccc1 (stereo unspecified) | 0.125 µM (active)
2 | Cc1ccc(/C=c2/sc3n(c2=O)CCCN=3)o1 | 0.161 µM (active)

Test system: not listed separately
Experiment: Luminescence Cell-Based Dose Response HTS to Identify Inhibitors of 5'UTR Stem-Loop Driven Prion Protein mRNA Translation in H4 Neuroglioblastoma Cells. [Related pubchem assays: 1827 (Project Summary), 1813 (Primary HTS)]
Format: functional
Conditions: not given

Row | Structure (SMILES) | EC50
3 | CCCN1C(=O)COc2ccc(-c3nnc(O)c4ccccc34)cc21 | > 120 µM (not active)
4 | C/C(=N\NC(=O)C12CCC(C)(C(=O)O1)C2(C)C)c1ccccc1O (stereo unspecified) | 13.5 µM (active)
5 | Cc1ccc(-c2ccnc3c(Cl)c(C)nn23)cc1 | > 120 µM (not active)
6 | CC1=NC(C)=C(C(=O)OCCNC(=O)c2ccccc2O)C(c2ccccc2[N+](=O)[O-])/C1=C(\O)OCC1CCCO1 (stereo unspecified) | > 120 µM (not active)
7 | CCCCSc1nc2c(c(=O)n1CC)SC(C)C2 (stereo unspecified) | > 60 µM (not active)
8 | S=C(Nc1cc(Cl)cc(Cl)c1)NC1CCN(Cc2ccccc2)CC1 | > 120 µM (not active)
9 | CC/N=C1/S/C(=C\c2cn(CC(=O)NCc3ccco3)c3ccccc23)C(=O)N1CC | 14.8 µM (active)
10 | CCOC(=O)c1c(C)[nH]c(C(=O)Cn2c(=O)c3c(ncn3CC)n(Cc3ccccc3)c2=O)c1C | > 120 µM (not active)
11 | CCn1nc([N+](=O)[O-])c2c(-c3nc4ccccc4o3)c(N)n(CCCOC)c2c1=O | > 120 µM (not active)
12 | CC(=O)c1cnc(SCC(=O)O)nc1C | > 120 µM (not active)

Target: T1, Cytochrome P450 1A2 (Homo sapiens, UniProt P05177);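 note: PubChem cytochrome P450 panel assay, CYP1A2 panel member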
T1 sequence (P05177 whole entry): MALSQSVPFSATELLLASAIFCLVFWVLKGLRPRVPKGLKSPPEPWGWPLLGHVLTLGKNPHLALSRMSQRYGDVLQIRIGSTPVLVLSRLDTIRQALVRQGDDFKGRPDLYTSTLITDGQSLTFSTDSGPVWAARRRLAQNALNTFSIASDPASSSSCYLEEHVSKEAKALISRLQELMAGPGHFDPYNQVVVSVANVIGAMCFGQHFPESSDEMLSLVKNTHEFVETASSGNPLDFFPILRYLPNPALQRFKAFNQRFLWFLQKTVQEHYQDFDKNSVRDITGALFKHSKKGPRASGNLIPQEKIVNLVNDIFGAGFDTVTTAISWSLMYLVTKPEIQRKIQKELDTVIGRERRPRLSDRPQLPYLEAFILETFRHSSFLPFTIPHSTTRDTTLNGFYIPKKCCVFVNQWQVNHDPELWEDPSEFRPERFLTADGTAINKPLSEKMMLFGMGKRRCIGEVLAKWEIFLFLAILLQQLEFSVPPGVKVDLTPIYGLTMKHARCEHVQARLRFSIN
Conditions: not given

Row | Structure (SMILES) | AC50
13 | CSc1cccc(NC(=O)OC2CCCCCCCCCCC2)c1 | 5.01 µM (inconclusive)

Test system: not listed separately
Experiment: cytotoxicity toward NIH3T3 fibroblasts, dose response, counter-screen, cell-based, ATP luminescence, mouse fibroblasts (AID 2010);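 note: cells exposed to compound for about 90 hours before reading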
Format: functional
Conditions: not given

Row | Structure (SMILES) | EC50
14 | Cc1cccc(NC(=S)/N=C(\N)Nc2nc(C)c3ccc(C)cc3n2)c1 | > 60 µM (not active)

Test system: H4
Experiment: Luminescence Cell-Based Dose Response HTS to Identify Activators of 5'UTR Stem-Loop Driven Prion Protein mRNA Translation in H4 Neuroglioblastoma Cells. [Related pubchem assays: 1829 (Project Summary), 1814 (Primary HTS)]
Format: functional
Conditions: Homo sapiens

Row | Structure (SMILES) | EC50
15 | O=C(Nc1ccc(N2CCCCC2)cc1)C(Cl)c1ccccc1 (stereo unspecified) | 12.8 µM (active)
16 | Cc1ccc(/C=c2/sc3n(c2=O)CCCN=3)o1 | 11.8 µM (active)

Test system: not listed separately
Experiment: Luminescence Cell-Based Dose Retest to Confirm Inhibitors of Cancer Stem Cells. [Related pubchem assays (depositor defined):AID2717, AID2721]
Format: functional
Conditions: Homo sapiens

Row | Structure (SMILES) | AC50
17 | COc1ccc([C@H]2Oc3cc(O)cc(O)c3C(=O)C2[C@@H]2C(=O)c3c(O)cc(O)cc3O[C@@H]2c2ccc(OC)cc2)cc1 (stereo partly specified) | 7.4 µM (active)
18 | S=C(Nc1cc(Cl)cc(Cl)c1)NC1CCN(Cc2ccccc2)CC1 | 5.23 µM (active)
19 | CN(C)c1ccc(-c2cc([C@H]3[C@@H]4C=CCC[C@@]4(C)C(=O)N3Cc3ccccc3)ccc2F)cc1 | 2.28 µM (active)
20 | N#C/C(=C\c1c[nH]c2ccc(Br)cc12)c1ccccn1 | 2.25 µM (active)

Test system: Streptococcus
Experiment: Group A Streptococcus viability loss, dose response, counter-screen for streptokinase expression inhibitor project, luminescence, BacTiterGlo (AID 1915);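 note: potency for reduction of bacterial viability or growth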
Format: functional, organism-based
Conditions: not given

Row | Structure (SMILES) | EC50
21 | COc1ccc([C@H]2Oc3cc(O)cc(O)c3C(=O)C2[C@@H]2C(=O)c3c(O)cc(O)cc3O[C@@H]2c2ccc(OC)cc2)cc1 (stereo partly specified) | 2.42 µM (active)
22 | N#C/C(=C\c1c[nH]c2ccc(Br)cc12)c1ccccn1 | > 150 µM (not active)
23 | CSc1cccc(NC(=O)OC2CCCCCCCCCCC2)c1 | 10.8 µM (active)
24 | Cc1cccc(NC(=S)/N=C(\N)Nc2nc(C)c3ccc(C)cc3n2)c1 | > 150 µM (not active)

Test system: not listed separately
Experiment: HEp-2 cell cytotoxicity, dose response, cytotoxicity control for RSV inhibitor project, HTS (AID 2410)
Format: functional
Conditions: human respiratory syncytial virus

Row | Structure (SMILES) | CC50
25 | CN(C)c1ccc(-c2cc([C@H]3[C@@H]4C=CCC[C@@]4(C)C(=O)N3Cc3ccccc3)ccc2F)cc1 | 13.1 µM (active)

Test system: INS1
Experiment: beta cell apoptosis inhibitors, cytokine rescue, dose response, luminescence, retest (AID 449756);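 note: cell death triggered by IL-1 beta plus TNF-alpha plus IFN-gamma mixture; protective hits raise ATP signal compared with cytokine alone wells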
Format: functional, cell-based
Conditions: Rattus norvegicus

Row | Structure (SMILES) | AC50
26 | CC1=NC(C)=C(C(=O)OCCNC(=O)c2ccccc2O)C(c2ccccc2[N+](=O)[O-])/C1=C(\O)OCC1CCCO1 (stereo unspecified) | 40.6 µM (active)

Test system: not listed separately
Experiment: inhibitors of firefly luciferase expression or activity, dose response, H4 neuroglioma cells, luminescence (AID 1990)
Format: functional, cell-based
Conditions: not given

Row | Structure (SMILES) | EC50
27 | CCCN1C(=O)COc2ccc(-c3nnc(O)c4ccccc34)cc21 | 22.7 µM (active)
28 | C/C(=N\NC(=O)C12CCC(C)(C(=O)O1)C2(C)C)c1ccccc1O (stereo unspecified) | 13.1 µM (active)
29 | Cc1ccc(-c2ccnc3c(Cl)c(C)nn23)cc1 | > 120 µM (not active)
30 | CC1=NC(C)=C(C(=O)OCCNC(=O)c2ccccc2O)C(c2ccccc2[N+](=O)[O-])/C1=C(\O)OCC1CCCO1 (stereo unspecified) | 17 µM (active)
31 | CCCCSc1nc2c(c(=O)n1CC)SC(C)C2 (stereo unspecified) | 15.3 µM (active)
32 | S=C(Nc1cc(Cl)cc(Cl)c1)NC1CCN(Cc2ccccc2)CC1 | > 120 µM (not active)
33 | CC/N=C1/S/C(=C\c2cn(CC(=O)NCc3ccco3)c3ccccc23)C(=O)N1CC | 11.1 µM (active)
34 | CCOC(=O)c1c(C)[nH]c(C(=O)Cn2c(=O)c3c(ncn3CC)n(Cc3ccccc3)c2=O)c1C | > 120 µM (not active)
35 | CCn1nc([N+](=O)[O-])c2c(-c3nc4ccccc4o3)c(N)n(CCCOC)c2c1=O | > 120 µM (not active)
36 | CC(=O)c1cnc(SCC(=O)O)nc1C | > 120 µM (not active)

Target: Cytochrome P450 3A4 (Homo sapiens, UniProt P08684);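 note: CYP3A4 tested as one member of a cytochrome P450 panel screen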
Conditions: not given

Sequence of Cytochrome P450 3A4 (P08684 whole entry): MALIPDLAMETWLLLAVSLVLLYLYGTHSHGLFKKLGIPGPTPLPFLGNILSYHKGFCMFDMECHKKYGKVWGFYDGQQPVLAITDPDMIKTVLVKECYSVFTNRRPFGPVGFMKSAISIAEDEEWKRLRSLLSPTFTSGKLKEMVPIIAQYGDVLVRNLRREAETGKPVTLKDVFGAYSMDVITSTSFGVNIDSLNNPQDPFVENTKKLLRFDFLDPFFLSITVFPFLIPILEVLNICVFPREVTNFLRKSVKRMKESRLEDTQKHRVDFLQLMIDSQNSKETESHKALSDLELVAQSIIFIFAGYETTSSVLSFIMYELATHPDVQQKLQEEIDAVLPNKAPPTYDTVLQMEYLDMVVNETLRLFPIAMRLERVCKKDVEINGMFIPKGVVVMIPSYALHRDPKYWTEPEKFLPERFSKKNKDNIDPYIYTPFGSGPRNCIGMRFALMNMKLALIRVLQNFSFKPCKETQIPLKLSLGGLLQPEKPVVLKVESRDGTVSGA

Row | Structure (SMILES) | AC50
37 | CSc1cccc(NC(=O)OC2CCCCCCCCCCC2)c1 | 3.16 µM (inconclusive)

Test system: not listed separately
Experiment: inhibitors of SNCA 5'UTR-driven reporter translation, confirmation, H4 neuroglioma cells, luminescence (AID 1988)
Format: functional, cell-based
Conditions: not given

Row | Structure (SMILES) | EC50
38 | CCCN1C(=O)COc2ccc(-c3nnc(O)c4ccccc34)cc21 | 30.9 µM (active)
39 | C/C(=N\NC(=O)C12CCC(C)(C(=O)O1)C2(C)C)c1ccccc1O (stereo unspecified) | > 120 µM (not active)
40 | Cc1ccc(-c2ccnc3c(Cl)c(C)nn23)cc1 | 13.7 µM (active)
41 | CC1=NC(C)=C(C(=O)OCCNC(=O)c2ccccc2O)C(c2ccccc2[N+](=O)[O-])/C1=C(\O)OCC1CCCO1 (stereo unspecified) | 78.4 µM (active)
42 | CCCCSc1nc2c(c(=O)n1CC)SC(C)C2 (stereo unspecified) | > 120 µM (not active)
43 | S=C(Nc1cc(Cl)cc(Cl)c1)NC1CCN(Cc2ccccc2)CC1 | 11.4 µM (active)
44 | CC/N=C1/S/C(=C\c2cn(CC(=O)NCc3ccco3)c3ccccc23)C(=O)N1CC | 13.9 µM (active)
45 | CCOC(=O)c1c(C)[nH]c(C(=O)Cn2c(=O)c3c(ncn3CC)n(Cc3ccccc3)c2=O)c1C | 17.2 µM (active)
46 | CCn1nc([N+](=O)[O-])c2c(-c3nc4ccccc4o3)c(N)n(CCCOC)c2c1=O | > 120 µM (not active)
47 | CC(=O)c1cnc(SCC(=O)O)nc1C | > 120 µM (not active)

Target: T2, Streptokinase A (Streptococcus pyogenes serotype M1, UniProt P10520)
T2 sequence (P10520 whole entry): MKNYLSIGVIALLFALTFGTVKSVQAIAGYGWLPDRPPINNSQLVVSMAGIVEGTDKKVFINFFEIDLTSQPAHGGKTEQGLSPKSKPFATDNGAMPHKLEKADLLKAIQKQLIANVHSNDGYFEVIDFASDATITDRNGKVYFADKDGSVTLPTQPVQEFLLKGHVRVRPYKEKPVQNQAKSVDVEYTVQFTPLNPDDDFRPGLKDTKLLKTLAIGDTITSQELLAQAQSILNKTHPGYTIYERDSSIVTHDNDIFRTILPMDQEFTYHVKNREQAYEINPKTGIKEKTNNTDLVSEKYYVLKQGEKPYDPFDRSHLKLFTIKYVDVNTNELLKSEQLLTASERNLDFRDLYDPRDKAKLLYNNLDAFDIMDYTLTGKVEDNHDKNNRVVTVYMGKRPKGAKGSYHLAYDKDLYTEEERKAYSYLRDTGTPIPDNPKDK
Experiment: S. pyogenes streptokinase expression inhibitors, potency, dose response, plasminogen activation absorbance, OD405 (AID 1914);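 note: secreted streptokinase activity via plasminogen activation per viability signal from cell pellet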
Format: functional, Streptococcus pyogenes M1 GAS
Conditions: not given

Row | Structure (SMILES) | EC50
48 | COc1ccc([C@H]2Oc3cc(O)cc(O)c3C(=O)C2[C@@H]2C(=O)c3c(O)cc(O)cc3O[C@@H]2c2ccc(OC)cc2)cc1 (stereo partly specified) | 1.7 µM (active)
49 | N#C/C(=C\c1c[nH]c2ccc(Br)cc12)c1ccccn1 | 51.6 µM (active)
50 | CSc1cccc(NC(=O)OC2CCCCCCCCCCC2)c1 | 2.93 µM (active)
51 | Cc1cccc(NC(=S)/N=C(\N)Nc2nc(C)c3ccc(C)cc3n2)c1 | > 150 µM (inconclusive)

Test system: not listed separately
Experiment: inhibitors of intracellular T. cruzi replication, confirmation, NIH3T3 host cells, beta-gal luminescence (AID 2044);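 note: intracellular parasites grown in NIH/3T3 mouse fibroblasts as host cells; luminescent beta-galactosidase reporter signal from transgenic T. cruzi replicating inside host cells; inhibitors lower the luminescence signal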
Format: functional, cell-based
Conditions: not given

Row | Structure (SMILES) | EC50
52 | Cc1cccc(NC(=S)/N=C(\N)Nc2nc(C)c3ccc(C)cc3n2)c1 | 2.12 µM (active)

Test system: Streptococcus sp. 'group A'
Experiment: growth inhibition of control SK(-) GAS strain, dose response, counter-screen for streptokinase expression inhibitor project, luminescence, kanamycin, BacTiterGlo, confirmation (AID 1900)
Format: functional, organism-based
Conditions: not given

Row | Structure (SMILES) | EC50
53 | COc1ccc([C@H]2Oc3cc(O)cc(O)c3C(=O)C2[C@@H]2C(=O)c3c(O)cc(O)cc3O[C@@H]2c2ccc(OC)cc2)cc1 (stereo partly specified) | 2.34 µM (active)
54 | N#C/C(=C\c1c[nH]c2ccc(Br)cc12)c1ccccn1 | 18.7 µM (active)
55 | CSc1cccc(NC(=O)OC2CCCCCCCCCCC2)c1 | 4.09 µM (active)
56 | Cc1cccc(NC(=S)/N=C(\N)Nc2nc(C)c3ccc(C)cc3n2)c1 | 77.2 µM (active)
